Source: ChEMBL document CHEMBL3758098, “3-(Dipropylamino)-5-hydroxybenzofuro[2,3-f]quinazolin-1(2H)-one (DPA-HBFQ-1) plays an inhibitory role on breast cancer cell growth and progression” (Eur J Med Chem, 2016)
Active and inactive are the calls of the source. The calls are words filed in the database; no cut-off is given here.

What was measured:
Ishikawa = assay: Cytotoxicity against human Ishikawa cells assessed as growth inhibition by MTT assay; type: functional, cell-based
MDA-MB-231 [1] = assay: Cytotoxicity against human MDA-MB-231 cells assessed as reduction of colony formation at 1 uM after 14 days by MTT staining-based anchorage-independant soft agar assay; type: functional, cell-based
MCF-7 TR1 [2] = assay: Cytotoxicity against human MCF-7 TR1 cells assessed as reduction of cell vitality at 0.1 to 1 uM after 3 to 5 days by MTT assay; type: functional, cell-based
MCF7 [3] = assay: Cytotoxicity against human MCF7 cells assessed as reduction of colony formation at 0.1 uM after 14 days by MTT staining-based anchorage-independant soft agar assay; type: functional, cell-based
MCF7 [4] = assay: Cytotoxicity against human MCF7 cells assessed as reduction of colony formation at 1 uM after 14 days by MTT staining-based anchorage-independant soft agar assay; type: functional, cell-based
[5] = Cytotoxicity against rat R2C cells assessed as growth inhibition by MTT assay; type: functional, cell-based
[6] = target: Cellular tumor antigen p53 (Homo sapiens) (UniProt P04637); assay: Activation of p53 in human MCF7 cells assessed as upregulation of […]/WAF1 mRNA expression at 1 uM after 12 hrs by RT-PCR analysis; type: cell-based
[7] = Upregulation of p53 expression in human MCF-7 TR1 cells at 0.1 uM after 48 hrs by Western blot analysis; type: functional, cell-based
MCF7 [8] = assay: Induction of p53 consensus sequences deficient […]/WAF1 promoter activity in human MCF7 cells at 1 uM after 24 hrs by dual luciferase reporter gene assay; type: cell-based
[9] = Induction of apoptosis in human MCF10A cells assessed as DNA fragmentation at 1 uM after 48 hrs by DNA laddering assay; type: cell-based; details: mcf-10a
[10] = Cytotoxicity against human MCF-7 TR1 cells assessed as cell colony formation after 14 days by crystal violet staining-based assay; type: functional; details: MCF-7 TR1, 336 h
MCF-7 TR1 [11] = assay: Induction of apoptosis in human MCF-7 TR1 cells assessed as PARP proteolysis at 1 uM after 48 hrs by Western blot analysis; type: functional, cell-based
[12] = target: Cellular tumor antigen p53 (Homo sapiens) (UniProt P04637); assay: Activation of p53 in human MCF-7 TR1 cells assessed as upregulation of […]/WAF1 gene expression at 0.1 uM after 48 hrs by Western blot analysis; type: cell-based
[13] = Cytotoxicity against human MCF10A cells assessed as cell viability after 5 days by MTT assay; type: cell-based; details: MCF-10A, 120 h
MDA-MB-231 [14] = assay: Cytotoxicity against human MDA-MB-231 cells assessed as cell viability after 5 days by MTT assay; type: functional, cell-based; details: MDA-MB-231, 120 h
MCF7 [15] = assay: Induction of p53 consensus sequences deficient […]/WAF1 promoter activity in human MCF7 cells at 0.1 uM after 24 hrs by dual luciferase reporter gene assay; type: cell-based
MCF7 [16] = assay: Induction of apoptosis in human MCF7 cells assessed as PARP proteolysis at 1 uM after 48 hrs by Western blot analysis; type: functional, cell-based
MDA-MB-231 [17] = assay: Upregulation of p53 expression in human MDA-MB-231 cells after 48 hrs by Western blot analysis; type: functional, cell-based
MCF-7 TR1 [18] = assay: Induction of apoptosis in human MCF-7 TR1 cells assessed as DNA fragmentation at 1 uM after 48 hrs by DNA laddering analysis; type: functional, cell-based
[19] = target: Cellular tumor antigen p53 (Homo sapiens) (UniProt P04637); assay: Activation of p53 in human MDA-MB-231 cells assessed as upregulation of […]/WAF1 mRNA expression at 0.1 uM after 12 hrs by RT-PCR analysis; type: cell-based
[20] = target: Cellular tumor antigen p53 (Homo sapiens) (UniProt P04637); assay: Activation of p53 in human MDA-MB-231 cells assessed as upregulation of […]/WAF1 expression after 48 hrs by Western blot analysis; type: cell-based
MCF7 [21] = assay: Upregulation of p53 expression in human MCF7 cells after 48 hrs by Western blot analysis; type: functional, cell-based
[22] = target: Cellular tumor antigen p53 (Homo sapiens) (UniProt P04637); assay: Activation of p53 in human MCF-7 TR1 cells assessed as upregulation of […]/WAF1 gene expression at 1 uM after 48 hrs by Western blot analysis; type: cell-based
[23] = target: Cellular tumor antigen p53 (Homo sapiens) (UniProt P04637); assay: Activation of p53 in human MCF7 cells assessed as upregulation of […]/WAF1 gene expression at 0.1 to 1 uM after 24 hrs by dual luciferase reporter gene assay; type: cell-based
HepG2 = assay: Cytotoxicity against human HepG2 cells assessed as growth inhibition by MTT assay; type: functional, cell-based
MDA-MB-231 [24] = assay: Induction of p53 consensus sequences deficient […]/WAF1 promoter activity in human MDA-MB-231 cells at 0.1 to 1 uM after 24 hrs by dual luciferase reporter gene assay; type: cell-based
[25] = target: Cellular tumor antigen p53 (Homo sapiens) (UniProt P04637); assay: Activation of p53 in human MCF7 cells assessed as upregulation of […]/WAF1 mRNA expression at 0.1 uM after 12 hrs by RT-PCR analysis; type: cell-based
[26] = target: Cellular tumor antigen p53 (Homo sapiens) (UniProt P04637); assay: Activation of p53 in human MCF7 cells assessed as upregulation of […]/WAF1 gene expression at 1 uM after 24 hrs by dual luciferase reporter gene assay; type: cell-based
MCF-7 TR1 [27] = assay: Cytotoxicity against human MCF-7 TR1 cells assessed as reduction of colony formation at 1 uM after 14 days by MTT staining-based anchorage-independant soft agar assay; type: functional, cell-based
[28] = target: T1, DNA topoisomerase 1 (Homo sapiens) (UniProt P11387); assay: Inhibition of recombinant human topoisomerase 1 assessed as relaxation of supercoiled pHOT1 at 50 uM after 30 mins by agarose gel electrophoresis
T1 sequence (whole entry): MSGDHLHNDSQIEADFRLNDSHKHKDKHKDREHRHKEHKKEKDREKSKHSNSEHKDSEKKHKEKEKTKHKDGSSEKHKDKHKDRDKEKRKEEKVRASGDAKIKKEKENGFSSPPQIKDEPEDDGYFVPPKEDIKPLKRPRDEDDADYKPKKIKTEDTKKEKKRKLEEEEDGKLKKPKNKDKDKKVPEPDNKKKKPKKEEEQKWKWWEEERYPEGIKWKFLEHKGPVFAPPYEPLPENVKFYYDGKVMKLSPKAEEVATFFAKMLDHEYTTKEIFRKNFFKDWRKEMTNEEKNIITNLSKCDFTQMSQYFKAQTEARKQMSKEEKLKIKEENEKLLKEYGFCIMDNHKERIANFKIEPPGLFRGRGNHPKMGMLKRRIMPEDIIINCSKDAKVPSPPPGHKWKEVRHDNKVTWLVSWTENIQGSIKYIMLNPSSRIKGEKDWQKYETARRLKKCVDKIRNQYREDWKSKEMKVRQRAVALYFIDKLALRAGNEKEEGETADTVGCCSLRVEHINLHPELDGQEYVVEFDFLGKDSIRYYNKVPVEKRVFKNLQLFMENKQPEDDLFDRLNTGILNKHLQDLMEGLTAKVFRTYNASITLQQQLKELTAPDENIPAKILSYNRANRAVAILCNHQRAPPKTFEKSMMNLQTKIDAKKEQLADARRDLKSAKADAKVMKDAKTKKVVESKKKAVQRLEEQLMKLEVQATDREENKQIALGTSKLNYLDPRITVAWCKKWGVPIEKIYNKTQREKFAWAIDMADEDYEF

MDA-MB-231 [29] = assay: Cytotoxicity against human MDA-MB-231 cells assessed as growth inhibition at 1 uM after 5 days by MTT assay relative to vehicle-treated control; type: functional
MCF7 [30] = assay: Cytotoxicity against human MCF7 cells assessed as cell viability after 5 days by MTT assay; type: functional, cell-based; details: MCF7, 120 h
[31] = Cytotoxicity against human MCF10A cells assessed as growth inhibition at 1 uM after 5 days by MTT assay relative to vehicle-treated control; type: cell-based; details: mcf-10a, 120 h
[32] = Upregulation of p53 expression in human MCF10A cells at 1 uM after 48 hrs by Western blot analysis; type: ADME, cell-based; details: mcf-10a
[33] = target: Cellular tumor antigen p53 (Homo sapiens) (UniProt P04637); assay: Activation of p53 in human MCF7 cells assessed as upregulation of […]/WAF1 gene expression at 1 uM by dual luciferase reporter gene assay in presence of p53 siRNA; type: cell-based
MCF7 [34] = assay: Induction of apoptosis in human MCF7 cells assessed as DNA fragmentation at 1 uM after 48 hrs by DNA laddering assay; type: functional, cell-based
[35] = Upregulation of p53 expression in human MCF-7 TR1 cells at 1 uM after 48 hrs by Western blot analysis; type: functional, cell-based
HeLa = assay: Cytotoxicity against human HeLa cells assessed as growth inhibition by MTT assay; type: functional, cell-based
MDA-MB-231 [36] = assay: Cytotoxicity against human MDA-MB-231 cells assessed as reduction of colony formation at 0.1 uM after 14 days by MTT staining-based anchorage-independant soft agar assay; type: functional, cell-based
[37] = target: Cellular tumor antigen p53 (Homo sapiens) (UniProt P04637); assay: Activation of p53 in human MDA-MB-231 cells assessed as upregulation of […]/WAF1 mRNA expression at 1 uM after 12 hrs by RT-PCR analysis; type: cell-based
MDA-MB-231 [38] = assay: Induction of apoptosis in human MDA-MB-231 cells assessed as DNA fragmentation at 1 uM after 48 hrs by DNA laddering assay; type: functional, cell-based
[39] = target: Cellular tumor antigen p53 (Homo sapiens) (UniProt P04637); assay: Activation of p53 in human MCF7 cells assessed as upregulation of […]/WAF1 expression after 48 hrs by Western blot analysis; type: cell-based
MCF7 [40] = assay: Upregulation of p53 mRNA expression in human MCF7 cells at 0.1 to 1 uM after 12 hrs by RT-PCR analysis; type: functional, cell-based
[41] = Induction of apoptosis in human MCF10A cells assessed as PARP proteolysis at 1 uM after 48 hrs by Western blot analysis; type: cell-based; details: mcf-10a
[42] = target: Cellular tumor antigen p53 (Homo sapiens) (UniProt P04637); assay: Activation of p53 in human MCF7 cells assessed as upregulation of […]/WAF1 gene expression at 0.1 uM after 24 hrs by dual luciferase reporter gene assay; type: cell-based
MCF7 [43] = assay: Cytotoxicity against human MCF7 cells assessed as growth inhibition at 1 uM after 5 days by MTT assay relative to vehicle-treated control; type: functional; details: MCF7, 120 h, read-out: GI
[44] = target: T1, DNA topoisomerase 1 (Homo sapiens); assay: Inhibition of recombinant human topoisomerase 1 assessed as relaxation of supercoiled pHOT1 at 10 uM after 30 mins by agarose gel electrophoresis
[45] = target: DNA topoisomerase 2-alpha (Homo sapiens) (UniProt P11388); assay: Inhibition of human topoisomerase 2 assessed as decatenation of kDNA after 30 mins by agarose gel electrophoresis
MDA-MB-231 [46] = assay: Upregulation of p53 mRNA expression in human MDA-MB-231 cells at 0.1 to 1 uM after 12 hrs by RT-PCR analysis; type: functional, cell-based
[47] = Upregulation of p53 expression in human MCF10A cells at 0.1 uM after 48 hrs by Western blot analysis; type: ADME, cell-based; details: mcf-10a

Sequence of Cellular tumor antigen p53 (Homo sapiens) (P04637 whole entry, looked up): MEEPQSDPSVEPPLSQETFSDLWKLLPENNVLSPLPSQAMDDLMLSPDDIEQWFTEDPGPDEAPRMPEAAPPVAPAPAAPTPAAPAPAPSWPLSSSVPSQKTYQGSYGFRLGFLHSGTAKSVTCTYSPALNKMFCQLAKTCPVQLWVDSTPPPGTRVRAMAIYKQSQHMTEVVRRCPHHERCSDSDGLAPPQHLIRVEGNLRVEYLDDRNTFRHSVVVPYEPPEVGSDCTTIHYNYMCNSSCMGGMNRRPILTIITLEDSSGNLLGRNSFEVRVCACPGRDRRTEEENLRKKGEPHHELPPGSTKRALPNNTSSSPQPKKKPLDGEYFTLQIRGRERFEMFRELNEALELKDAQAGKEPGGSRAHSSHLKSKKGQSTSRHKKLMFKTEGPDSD
Sequence of DNA topoisomerase 2-alpha (Homo sapiens) (P11388 whole entry): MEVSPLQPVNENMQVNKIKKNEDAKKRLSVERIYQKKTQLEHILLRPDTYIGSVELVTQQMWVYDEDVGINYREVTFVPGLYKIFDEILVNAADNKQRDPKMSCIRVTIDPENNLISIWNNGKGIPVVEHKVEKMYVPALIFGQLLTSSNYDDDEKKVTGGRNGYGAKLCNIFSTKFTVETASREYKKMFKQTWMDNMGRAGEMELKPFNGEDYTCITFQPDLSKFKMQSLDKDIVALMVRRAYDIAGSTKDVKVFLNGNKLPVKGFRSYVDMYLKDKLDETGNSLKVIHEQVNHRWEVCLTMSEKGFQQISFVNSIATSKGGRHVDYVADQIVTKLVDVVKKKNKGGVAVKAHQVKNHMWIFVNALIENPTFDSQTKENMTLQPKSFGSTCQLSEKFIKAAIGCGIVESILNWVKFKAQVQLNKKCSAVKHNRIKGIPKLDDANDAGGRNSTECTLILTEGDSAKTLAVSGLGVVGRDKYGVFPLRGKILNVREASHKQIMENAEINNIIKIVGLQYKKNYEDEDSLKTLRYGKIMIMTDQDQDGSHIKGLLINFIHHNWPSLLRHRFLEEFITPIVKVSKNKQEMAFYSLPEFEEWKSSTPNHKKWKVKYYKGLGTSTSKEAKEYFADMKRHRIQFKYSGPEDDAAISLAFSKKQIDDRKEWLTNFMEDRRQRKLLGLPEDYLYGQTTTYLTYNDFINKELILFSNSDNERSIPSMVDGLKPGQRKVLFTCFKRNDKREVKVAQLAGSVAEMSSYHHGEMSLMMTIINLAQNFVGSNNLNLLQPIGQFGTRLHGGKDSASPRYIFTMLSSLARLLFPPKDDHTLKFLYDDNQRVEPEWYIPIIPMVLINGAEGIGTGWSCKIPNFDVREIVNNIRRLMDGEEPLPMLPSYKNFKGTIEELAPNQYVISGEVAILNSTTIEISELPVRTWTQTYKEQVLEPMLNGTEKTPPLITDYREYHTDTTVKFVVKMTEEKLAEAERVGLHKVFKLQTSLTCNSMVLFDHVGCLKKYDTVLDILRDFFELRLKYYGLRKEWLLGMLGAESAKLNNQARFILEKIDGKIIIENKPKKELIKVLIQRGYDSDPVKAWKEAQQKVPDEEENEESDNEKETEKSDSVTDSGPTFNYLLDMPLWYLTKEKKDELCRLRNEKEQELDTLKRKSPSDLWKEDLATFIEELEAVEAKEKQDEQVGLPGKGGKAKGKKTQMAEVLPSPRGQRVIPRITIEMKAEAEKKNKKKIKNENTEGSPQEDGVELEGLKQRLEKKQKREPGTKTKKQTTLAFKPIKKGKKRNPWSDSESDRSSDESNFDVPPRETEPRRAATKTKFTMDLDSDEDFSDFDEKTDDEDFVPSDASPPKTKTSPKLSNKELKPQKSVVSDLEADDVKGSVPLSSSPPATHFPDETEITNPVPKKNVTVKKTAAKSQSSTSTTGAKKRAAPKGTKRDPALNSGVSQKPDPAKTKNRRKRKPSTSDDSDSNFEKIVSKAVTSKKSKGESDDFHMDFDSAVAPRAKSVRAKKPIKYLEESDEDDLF

SMILES: CCCN(CCC)c1nc2c(O)cc3c4ccccc4oc3c2c(=O)[nH]1
- IC50 (Ishikawa): 980 nM
- Activity (MDA-MB-231 [1]): Active
- Activity (MCF-7 TR1 [2]): Active
- Activity (MCF7 [3]): Active
- Activity (MCF7 [4]): Active
- IC50 [5]: 1200 nM
- Activity [6]: Active
- Activity [7]: Active
- Activity (MCF7 [8]): inactive
- Activity [9]: Non-toxic
- IC50 [10]: 1000 nM
- Activity (MCF-7 TR1 [11]): Active
- Activity [12]: Active
- IC50 [13]: 33 µM
- IC50 (MDA-MB-231 [14]): 650 nM
- Activity (MCF7 [15]): inactive
- Activity (MCF7 [16]): inactive
- Activity (MDA-MB-231 [17]): Dose-dependent effect
- Activity (MCF-7 TR1 [18]): Active
- Activity [19]: Active
- Activity [20]: Dose-dependent effect
- Activity (MCF7 [21]): Dose-dependent effect
- Activity [22]: Active
- Activity [23]: inactive
- IC50 (HepG2): 890 nM
- Activity (MDA-MB-231 [24]): Active
- Activity [25]: Active
- Activity [26]: Active
- Activity (MCF-7 TR1 [27]): Active
- inhibition [28]: inactive
- inhibition of growth at 1 µM (MDA-MB-231 [29]; MDA-MB-231, 120 h, read-out: GI): 60%
- IC50 (MCF7 [30]): 660 nM
- Activity [31]: Non-toxic
- Activity [32]: Non-toxic
- Activity [33]: inactive
- Activity (MCF7 [34]): Active
- Activity [35]: Active
- IC50 (HeLa): 700 nM
- Activity (MDA-MB-231 [36]): Active
- Activity [37]: Active
- Activity (MDA-MB-231 [38]): Active
- Activity [39]: Dose-dependent effect
- Activity (MCF7 [40]): inactive
- Activity [41]: Non-toxic
- Activity [42]: Active
- inhibition of growth at 1 µM (MCF7 [43]): 58%
- inhibition [44]: inactive
- inhibition [45]: Dose-dependent effect
- Activity (MDA-MB-231 [46]): inactive
- Activity [47]: Non-toxic

SMILES: CCCN(CCC)c1nc2ccc3c4ccccc4oc3c2c(=O)[nH]1
- growth inhibition (GI) (MDA-MB-231 [29]): Active
- Activity [31]: Non-toxic
- inhibition of growth at 1 µM (MCF7 [43]): 25%

SMILES: CCN(CC)c1nc2ccc3c4ccccc4oc3c2c(=O)[nH]1
- growth inhibition (GI) (MDA-MB-231 [29]): Active
- Activity [31]: Non-toxic
- inhibition of growth at 1 µM (MCF7 [43]): 10%

SMILES: CCCCN(CCCC)c1nc2ccc3c4ccccc4oc3c2c(=O)[nH]1
- growth inhibition (GI) (MDA-MB-231 [29]): Active
- Activity [31]: Non-toxic
- inhibition of growth at 1 µM (MCF7 [43]): 15%
